Experimental data published in PMC6155272, “Chroman-4-One Derivatives Targeting Pteridine Reductase 1 and Showing Anti-Parasitic Activity” (Molecules : A Journal of Synthetic Chemistry and Natural …, 2017).

Experiments:
A549 cells = assay: Cytotoxicity assay against A549 cells (CellTiter-Glo); assay type: cell-based; settings: 100% = not cytotoxic, 0% = cytostatic
Method: The assays were performed using the CellTiter-Glo assay from Promega (Madison, AL, USA). The assay detects cellular adenosine triphosphate (ATP) content with the amount of ATP being directly proportional to the number of cells present. The A549 cells were obtained from DSMZ (German Collection of Microorganisms and Cell Cultures, Braunschweig, Germany) and W1-38 cells were obtained from ATCC (ATCC® CCL-75™) and were grown in Dulbecco's Modified Eagle Medium (DMEM) from Capricorn Scientific GmbH, Ebsdorfergrund, Germany with fetal bovine serum (FBS) (10% v/v) from Capricorn Scientific GmbH, Ebsdorfergrund, Germany, streptomycin (100 μg/mL) and penicillin G (100 U/mL).

CYP1A2 = biological target: T1, CYP1A2 (Homo sapiens, UniProt P05177); assay: Cytochrome P450 1A2 assay (P450-Glo); assay type: in vitro ADME; settings: for inhibition at 10 µM: human
T1 construct: purchased Promega; host or cells: baculovirus-infected insect cells
T1 sequence (P05177 1-516): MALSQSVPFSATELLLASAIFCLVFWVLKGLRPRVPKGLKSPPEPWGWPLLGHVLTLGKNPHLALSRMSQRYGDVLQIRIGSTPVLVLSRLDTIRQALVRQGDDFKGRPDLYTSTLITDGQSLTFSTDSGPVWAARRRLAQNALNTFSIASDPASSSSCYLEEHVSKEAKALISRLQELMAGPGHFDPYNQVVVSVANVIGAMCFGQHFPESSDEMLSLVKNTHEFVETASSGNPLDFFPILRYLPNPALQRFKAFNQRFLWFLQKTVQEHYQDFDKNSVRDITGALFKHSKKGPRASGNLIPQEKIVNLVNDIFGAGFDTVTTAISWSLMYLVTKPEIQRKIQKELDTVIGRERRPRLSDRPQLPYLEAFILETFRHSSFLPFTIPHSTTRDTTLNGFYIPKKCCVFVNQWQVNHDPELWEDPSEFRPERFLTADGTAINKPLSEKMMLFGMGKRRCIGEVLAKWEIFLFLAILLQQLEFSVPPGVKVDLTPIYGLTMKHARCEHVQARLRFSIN
Source text: These assays made use of the PromegaP450-Glo™ (Madison, AL, USA) assay platform. Each CYP450 assay includes microsomal preparations of cytochromes from baculovirus-infected insect cells.

Row | Structure (SMILES) | % Cell growth A549 (10 μM) (A549 cells) [%] | IC50 (CYP1A2) [µM] | inhibition at 10 µM (CYP1A2) [%]
1 | O=C1CC(c2cccc(O)c2)Oc2ccc(O)cc21 (stereo not drawn) [Compound 1] | 137 | 29 | 3
2 | O=C1CC(c2ccc(O)cc2)Oc2ccc(O)cc21 (stereo not drawn) [Compound 2] | 105 | 59 | < 15
3 | O=C1CC(c2ccc(O)c(O)c2)Oc2ccc(O)cc21 (stereo not drawn) [Compound 3] | 124 | 62 | < 15
